From ChEMBL document CHEMBL4373747 (ACS Med Chem Lett, 2020)
Active and inactive are the calls of the source. The rule behind the calls is not given here.

Tests used:
[1] = target: T1, Polyamine deacetylase HDAC10 (Homo sapiens, UniProt Q969S8); assay: Inhibition of recombinant full length human HDAC10 expressed in baculovirus infected Sf9 cells using FAM-RHKK-Ac as substrate incubated for 17 hrs by electrophoretic mobility shift assay
T1 sequence (Q969S8 whole entry): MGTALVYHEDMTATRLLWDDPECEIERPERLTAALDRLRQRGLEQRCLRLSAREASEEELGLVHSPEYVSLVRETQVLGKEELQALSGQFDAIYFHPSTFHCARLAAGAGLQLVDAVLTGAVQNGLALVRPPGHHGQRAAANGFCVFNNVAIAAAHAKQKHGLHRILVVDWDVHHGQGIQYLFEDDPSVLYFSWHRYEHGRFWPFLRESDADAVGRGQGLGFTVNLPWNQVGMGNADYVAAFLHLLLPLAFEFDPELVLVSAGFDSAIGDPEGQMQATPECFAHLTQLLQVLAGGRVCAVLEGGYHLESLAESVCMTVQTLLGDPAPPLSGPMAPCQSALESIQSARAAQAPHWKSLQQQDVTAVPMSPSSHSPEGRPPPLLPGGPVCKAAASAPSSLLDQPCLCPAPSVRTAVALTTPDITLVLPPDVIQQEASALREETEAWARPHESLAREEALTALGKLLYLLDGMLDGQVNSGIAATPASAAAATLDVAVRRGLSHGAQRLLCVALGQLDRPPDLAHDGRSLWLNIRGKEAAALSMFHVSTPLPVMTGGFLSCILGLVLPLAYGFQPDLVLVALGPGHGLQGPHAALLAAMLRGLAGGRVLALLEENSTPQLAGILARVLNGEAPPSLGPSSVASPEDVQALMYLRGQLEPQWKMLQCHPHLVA

[2] = target: Histone deacetylase (Homo sapiens) (UniProt Q13547+O15379+Q9UBN7+Q92769+Q9UQL6+Q8WUI4+Q9BY41+Q96DB2+P56524+Q9UKV0+Q969S8); assay: Inhibition of HDAC in human MV4-11 cells assessed as […] in acetylated histone H3 at 0.1 to 10 uM incubated for 6 hrs by Western blot analysis; format: cell-based
Histone deacetylase 9 = Histone deacetylase 9 (Homo sapiens, UniProt Q9UKV0); assay: Inhibition of recombinant human HDAC9 (604-1066 residues) expressed in baculovirus infected Sf9 cells using FAM-RHKK-TFAc as substrate incubated for 3 hrs by electrophoretic mobility shift assay
MDA-MB-231 = assay: Cytotoxicity against human MDA-MB-231 cells assessed as reduction in cell viability incubated for 72 hrs by cell-titer blue assay; format: functional, cell-based; settings: MDA-MB-231, 72 h
Histone deacetylase 11 = target: T2, Histone deacetylase 11 (Homo sapiens, UniProt Q96DB2); assay: Inhibition of recombinant full length human HDAC11 expressed in baculovirus infected Sf9 cells using FAM-RHKK-TFAc as substrate incubated for 17 hrs by electrophoretic mobility shift assay
T2 sequence (Q96DB2 whole entry): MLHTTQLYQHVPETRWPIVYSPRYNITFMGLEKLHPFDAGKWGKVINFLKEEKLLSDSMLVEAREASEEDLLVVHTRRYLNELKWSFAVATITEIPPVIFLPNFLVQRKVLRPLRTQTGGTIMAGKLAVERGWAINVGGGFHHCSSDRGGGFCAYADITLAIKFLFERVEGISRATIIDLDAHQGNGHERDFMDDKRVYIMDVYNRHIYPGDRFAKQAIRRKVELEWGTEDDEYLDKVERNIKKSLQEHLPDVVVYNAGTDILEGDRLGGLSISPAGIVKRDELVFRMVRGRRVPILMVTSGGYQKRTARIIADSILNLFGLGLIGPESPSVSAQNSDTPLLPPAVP

Histone deacetylase 1 = Histone deacetylase 1 (Homo sapiens, UniProt Q13547); assay: Inhibition of recombinant full length human HDAC1 expressed in baculovirus infected Sf9 cells using FAM-RHKK-Ac as substrate incubated for 17 hrs by electrophoretic mobility shift assay
[3] = Stability in CD-1 mouse hepatocytes assessed as compound remaining at 1 uM measured up to 6 hrs by LCMS analysis; format: ADME, cell-based, Hepatocyte; settings: mouse, 6 h, 1 µM
MV4-11 [4] = assay: Induction of apoptosis in human MV4-11 cells assessed as viable cells at 4 uM incubated for 18 hrs by annexin V FITC and PI based flow cytometry (reference value: 53.01 to 53.07 %); format: functional; settings: Homo sapiens, MV4-11, 18 h; read-out: Activity
MV4-11 [5] = assay: Induction of apoptosis in human MV4-11 cells assessed as early apoptotic cells at 1 uM incubated for 18 hrs by annexin V FITC and PI based flow cytometry (reference value: 19.46 to 22.17 %); format: functional
MV4-11 [6] = assay: Induction of apoptosis in human MV4-11 cells assessed as viable cells at 1 uM incubated for 18 hrs by annexin V FITC and PI based flow cytometry (reference value: 53.01 to 53.07 %); format: functional; settings: Homo sapiens, MV4-11, 18 h; read-out: Activity
[7] = Half life in NSG mouse; format: ADME; settings: in vivo
MV4-11 [8] = assay: Induction of apoptosis in human MV4-11 cells assessed as viable cells at 0.5 uM incubated for 18 hrs by annexin V FITC and PI based flow cytometry (reference value: 53.01 to 53.07 %); format: functional; settings: Homo sapiens, MV4-11, 18 h; read-out: Activity
Histone deacetylase 5 = Histone deacetylase 5 (Homo sapiens, UniProt Q9UQL6); assay: Inhibition of recombinant full length human HDAC5 expressed in baculovirus infected Sf9 cells using FAM-RHKK-TFAc as substrate incubated for 3 hrs by electrophoretic mobility shift assay
[9] = Tmax in NSG mouse; format: ADME; settings: in vivo

Histone deacetylase 5, sequence (Q9UQL6 whole entry): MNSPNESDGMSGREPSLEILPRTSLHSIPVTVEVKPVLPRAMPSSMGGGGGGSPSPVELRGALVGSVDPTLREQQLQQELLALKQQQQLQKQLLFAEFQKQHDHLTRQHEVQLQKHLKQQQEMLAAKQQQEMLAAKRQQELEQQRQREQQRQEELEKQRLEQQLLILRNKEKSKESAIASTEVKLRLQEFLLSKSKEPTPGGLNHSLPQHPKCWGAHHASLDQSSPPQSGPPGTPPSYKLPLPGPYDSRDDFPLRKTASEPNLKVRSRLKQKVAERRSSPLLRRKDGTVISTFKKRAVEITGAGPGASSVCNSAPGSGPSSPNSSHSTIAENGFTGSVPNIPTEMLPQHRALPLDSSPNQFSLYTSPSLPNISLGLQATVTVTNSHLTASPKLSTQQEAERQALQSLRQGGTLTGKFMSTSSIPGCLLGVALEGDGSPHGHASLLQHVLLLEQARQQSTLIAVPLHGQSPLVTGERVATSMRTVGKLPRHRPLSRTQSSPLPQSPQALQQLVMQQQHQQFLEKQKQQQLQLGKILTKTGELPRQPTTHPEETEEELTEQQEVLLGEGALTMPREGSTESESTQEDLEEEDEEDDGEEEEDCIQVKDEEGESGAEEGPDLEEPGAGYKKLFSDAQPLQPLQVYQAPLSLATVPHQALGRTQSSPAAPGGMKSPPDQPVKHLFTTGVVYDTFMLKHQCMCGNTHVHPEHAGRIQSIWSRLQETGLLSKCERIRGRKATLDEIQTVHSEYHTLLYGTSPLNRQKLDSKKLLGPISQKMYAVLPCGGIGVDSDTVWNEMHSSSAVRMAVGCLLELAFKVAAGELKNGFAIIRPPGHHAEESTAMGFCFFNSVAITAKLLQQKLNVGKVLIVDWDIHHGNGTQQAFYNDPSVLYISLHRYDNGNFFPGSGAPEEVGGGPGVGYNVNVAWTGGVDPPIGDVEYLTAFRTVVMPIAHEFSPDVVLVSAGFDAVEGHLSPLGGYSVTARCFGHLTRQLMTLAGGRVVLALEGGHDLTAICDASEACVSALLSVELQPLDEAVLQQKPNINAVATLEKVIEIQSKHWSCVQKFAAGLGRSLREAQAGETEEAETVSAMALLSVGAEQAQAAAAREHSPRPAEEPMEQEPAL
Histone deacetylase 1, sequence (Q13547 whole entry): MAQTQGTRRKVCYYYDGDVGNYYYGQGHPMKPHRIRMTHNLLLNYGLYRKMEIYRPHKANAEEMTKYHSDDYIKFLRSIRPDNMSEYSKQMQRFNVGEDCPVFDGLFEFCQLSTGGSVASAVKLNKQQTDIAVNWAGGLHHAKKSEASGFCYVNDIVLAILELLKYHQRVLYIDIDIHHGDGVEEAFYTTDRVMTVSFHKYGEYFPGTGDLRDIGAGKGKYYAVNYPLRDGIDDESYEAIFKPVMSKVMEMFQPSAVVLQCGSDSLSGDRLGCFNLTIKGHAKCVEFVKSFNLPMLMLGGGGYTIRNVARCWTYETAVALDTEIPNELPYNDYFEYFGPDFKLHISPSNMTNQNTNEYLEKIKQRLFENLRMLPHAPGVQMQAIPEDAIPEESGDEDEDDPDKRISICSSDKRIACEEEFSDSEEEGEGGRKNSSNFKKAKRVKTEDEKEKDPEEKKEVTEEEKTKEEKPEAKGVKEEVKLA
Histone deacetylase 9, sequence (Q9UKV0 whole entry, the tested form may be a part): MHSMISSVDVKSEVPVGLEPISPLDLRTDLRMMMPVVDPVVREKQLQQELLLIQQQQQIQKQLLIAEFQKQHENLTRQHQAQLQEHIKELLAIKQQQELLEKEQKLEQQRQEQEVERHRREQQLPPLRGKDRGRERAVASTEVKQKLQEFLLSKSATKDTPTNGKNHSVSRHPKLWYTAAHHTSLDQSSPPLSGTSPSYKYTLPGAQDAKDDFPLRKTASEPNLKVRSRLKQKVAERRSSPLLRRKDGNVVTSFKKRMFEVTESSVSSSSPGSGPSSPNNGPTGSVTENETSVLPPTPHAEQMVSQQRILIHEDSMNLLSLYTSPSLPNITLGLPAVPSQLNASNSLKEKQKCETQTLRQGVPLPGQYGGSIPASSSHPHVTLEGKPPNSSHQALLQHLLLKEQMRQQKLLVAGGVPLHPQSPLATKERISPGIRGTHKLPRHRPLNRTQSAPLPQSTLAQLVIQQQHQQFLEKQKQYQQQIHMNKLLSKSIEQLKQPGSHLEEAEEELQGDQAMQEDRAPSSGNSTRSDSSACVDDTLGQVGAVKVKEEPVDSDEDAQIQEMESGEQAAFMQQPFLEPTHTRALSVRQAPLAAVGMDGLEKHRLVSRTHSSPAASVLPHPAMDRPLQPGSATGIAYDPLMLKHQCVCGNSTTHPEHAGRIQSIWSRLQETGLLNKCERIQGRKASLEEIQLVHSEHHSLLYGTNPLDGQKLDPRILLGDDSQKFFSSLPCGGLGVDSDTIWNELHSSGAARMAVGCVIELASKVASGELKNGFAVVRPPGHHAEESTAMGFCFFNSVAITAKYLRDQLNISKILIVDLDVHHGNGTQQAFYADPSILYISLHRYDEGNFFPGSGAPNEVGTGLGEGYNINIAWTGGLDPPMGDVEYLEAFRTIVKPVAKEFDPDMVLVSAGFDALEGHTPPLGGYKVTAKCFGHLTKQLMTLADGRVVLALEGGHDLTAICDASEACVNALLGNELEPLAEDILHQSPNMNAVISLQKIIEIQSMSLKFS

For `CC(C)(C)c1ccc(C(=O)Nc2ccc(C(=O)NO)cc2)cc1`, the IC50 [1] was 0.899 µM, the inhibition [2] was “Active” and the IC50 (Histone deacetylase 9) was > 1 µM. For the same compound, the IC50 (MDA-MB-231) was > 25 µM, the IC50 (Histone deacetylase 11) was > 1 µM and the IC50 (Histone deacetylase 1) was 0.605 µM. For the same compound, the Stability [3] was 20%, the viability at 4 µM (MV4-11 [4]) was 16.3% and the Activity (MV4-11 [5]) was 29.78%. It also gave a viability at 1 µM (MV4-11 [6]) of 40.9%, a half-life [7] of 5 h and a viability at 0.5 µM (MV4-11 [8]) of 48.7%. For the same compound, the IC50 (Histone deacetylase 5) was > 1 µM and the Tmax [9] was 8 h.
